# Data as given in article PMC2632761 (Journal of biomolecular screening, 2009).
# Read-outs that look alike come from different tables or passages of the source.
# Experiments:
# [1] = target: T1, hPPARγ (Homo sapiens, UniProt P37231); assay: PPARγ SPA ligand competition binding assay
# T1 sequence (P37231 238-503 limits assumed): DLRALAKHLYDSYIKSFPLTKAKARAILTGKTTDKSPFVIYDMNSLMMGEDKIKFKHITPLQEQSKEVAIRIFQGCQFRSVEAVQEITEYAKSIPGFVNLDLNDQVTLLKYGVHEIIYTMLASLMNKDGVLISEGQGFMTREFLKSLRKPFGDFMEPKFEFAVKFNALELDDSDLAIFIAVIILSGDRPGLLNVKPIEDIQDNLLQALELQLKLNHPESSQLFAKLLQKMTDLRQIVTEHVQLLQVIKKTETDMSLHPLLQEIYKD
# [2] = target: T2, AR-LBD (androgen receptor) (Pan troglodytes, UniProt O97775); assay: AR SPA ligand competition binding assay
# T2 sequence (O97775 655-911 limits assumed): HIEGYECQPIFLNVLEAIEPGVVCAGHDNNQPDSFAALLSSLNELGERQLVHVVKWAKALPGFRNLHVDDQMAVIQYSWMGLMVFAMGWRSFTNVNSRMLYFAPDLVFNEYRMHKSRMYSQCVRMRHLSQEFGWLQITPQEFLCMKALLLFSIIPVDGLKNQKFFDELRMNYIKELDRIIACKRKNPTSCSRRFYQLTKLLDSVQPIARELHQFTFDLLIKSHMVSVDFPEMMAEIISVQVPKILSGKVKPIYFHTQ
# [3] = target: T3, hTRβ (Homo sapiens, UniProt P10828); assay: TRβ SPA ligand competition binding assay
# T3 sequence (P10828 217-461 limits assumed): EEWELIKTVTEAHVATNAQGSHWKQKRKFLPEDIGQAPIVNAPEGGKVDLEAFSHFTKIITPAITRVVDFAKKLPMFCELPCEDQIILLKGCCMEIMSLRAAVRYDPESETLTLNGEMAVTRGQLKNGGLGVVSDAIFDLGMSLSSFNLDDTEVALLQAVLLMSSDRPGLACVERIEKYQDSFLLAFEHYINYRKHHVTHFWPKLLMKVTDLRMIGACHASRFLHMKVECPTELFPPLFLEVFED
# [4] = target: T4, hTRα (Homo sapiens, UniProt P10827); assay: TRα SPA ligand competition binding assay
# T4 sequence (P10827 148-410 isoform P10827-2 limits assumed): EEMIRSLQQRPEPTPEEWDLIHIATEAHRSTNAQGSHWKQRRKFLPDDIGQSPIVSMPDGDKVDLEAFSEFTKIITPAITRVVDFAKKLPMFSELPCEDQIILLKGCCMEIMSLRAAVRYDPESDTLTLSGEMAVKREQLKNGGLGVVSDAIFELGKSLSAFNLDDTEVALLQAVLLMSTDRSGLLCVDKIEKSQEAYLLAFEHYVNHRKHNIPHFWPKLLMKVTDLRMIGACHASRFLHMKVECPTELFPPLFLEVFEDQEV
smiles,measurement,setting,value
CCCCC/C=C\C/C=C\C/C=C\C/C=C\CCCC(=O)O [Arachidonic Acid],IC50,[1],4.2 ± 0.53 µM
O=C(Nc1ccccc1)c1cc([N+](=O)[O-])ccc1Cl [GW9662],IC50,"[1]; read-out: IC50 PPARγ, SPA competition, 40 nM [3H]-Rosiglitazone",0.23 ± 0.02 µM
CC(C)(O)C(=O)Nc1ccc([N+](=O)[O-])c(C(F)(F)F)c1 [Hydroxyflutamide],IC50,[2],33 ± 8 µM
CCCCC/C=C\C/C=C\CCCCCCCC(=O)O [Lineolic Acid],IC50,[1],3.8 ± 0.49 µM
"C[C@]1(O)CC[C@H]2[C@@H]3CCC4=CC(=O)CCC4=C3C=C[C@@]21C [Methyltrienolone (R1881), Methyltrienolone]",IC50,[2]; IC50 AR,0.11 ± 0.02 µM
"O=C(O)c1cc(I)c(Oc2ccc(O)c(I)c2)c(I)c1 [T3Bz, 4-(4'-Hydroxy-3'-iodophenoxy)-3,5-diiodo-benzoic acid]",IC50,[3],10 ± 4 µM
same,IC50,[4],12 ± 2 µM
"O=C(O)Cc1cc(I)c(Oc2cc(I)c(O)c(I)c2)c(I)c1 [T4Ac, 3,3’,5,5’-tetraiodothyroacetic acid]",IC50,"[3]; read-out: IC50 TRβ, SPA competition, 1 nM [125I]-T3",5 ± 2 µM
same,IC50,"[4]; read-out: IC50 TRα, SPA competition, 1 nM [125I]-T3",10 ± 2 µM
